Target: T1, PLEKHA7 PH-domain (Homo sapiens, UniProt Q6IQ23)
T1 construct: The plekstrin homology domain of CNK and PLEKHA7 expressed with GST at the N-terminus; made in house
T1 sequence (Q6IQ23 164-282 limits assumed): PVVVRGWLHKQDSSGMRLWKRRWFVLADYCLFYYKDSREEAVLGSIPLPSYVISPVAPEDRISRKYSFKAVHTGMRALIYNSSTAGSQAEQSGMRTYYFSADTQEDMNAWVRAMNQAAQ
Experiment: Surface plasmon resonance binding to PLEKHA7 PH-domain
Conditions: SPR; read-out: PLEK KD
Method: The plekstrin homology domain of CNK and PLEKHA7 expressed with GST at the N-terminus, CNK(PH)-GST were immobilized on a CM5 chip. Analysis of potential small molecule drug binding was done using a Biacore T200. Immobilization of antibody was run at 37° C. and a flow rate of 5 μL/min. A freshly prepared mixture of aqueous 0.4M 1-ethyl-3-(3-dimethylaminopropyl)carbodiimide hydrochloride (EDC) and aqueous 0.1M N-hydroxysuccinamide (NETS), (0.2M/0.05M EDC/NHS solution) is injected for 480 seconds over a conditioned (Tanious, et al doi:10.1016/50091-679X(07)84003-9) CM5 chip flow cell. The activated surface is then injected at 37° C., flow rate of 5 μL/min for 480 sec with 30 μg/mL anti-GST antibody, freshly suspended in pH 5.0 10 mM acetate buffer. Expected capture is 12000-20000 response units (RU). The remaining active surface is deactivated with 480 sec injections of 0.1M ethylenediamine in borate buffer (GE Healthcare) and then 1M ethanolamine pH 8.5 to provide 10000-18000 RU of covalently linked antibody on the flow cell. An upstream reference flow cell (Fc1) and a downstream working flow cell (Fc2) are prepared in this manner. […] Binding responses were determined 4 seconds prior to the conclusion of the injection. […]

Kd: 261 µM
Compound: CCOC(=O)/C=C/c1cc(NS(=O)(=O)c2cccs2)c2c(c1O)OCO2 [Compound 88, (E)-ethyl 3-(4-hydroxy-7-(thiophene-2-sulfonamido)benzo[d][1,3]dioxol-5-yl)acrylate]
